This is an account of results in BindingDB's records for doi:10.1016/j.bioorg.2016.04.005 (Comsats Institute of Information Technology, 2016).

pIC50: −log10 of the molar value.

The target in this experiment is Urease subunit alpha (Sporosarcina pasteurii, UniProt P41020). Briefly: Urease Inhibition Assay. As to conditions: 30 °C. On the procedure: Reaction mixtures comprising one unit of urease enzyme (B. pasteurii) solution and 55 uL of buffers containing 100 mMol urea were incubated with 5 uL of test compounds (1 mMol concentration) at 30° C for 15 min in 96-well plates. Urease activity was determined by measuring ammonia production using the indophenol'smethod. Momentarily, 45 uL each of phenol reagent and 70 uL of alkali reagent were added to each well. The increasing absorbance at 630 nm was measured after 50 min, using a micro-plate reader (Molecular Devices, USA). All reactions were performed in triplicate in a final volume of 200 uL. The results (change in absorbance per min.) were processed by using the Soft-Max Pro s4.5.Software (Molecular Devices, USA).
Chain of Urease subunit alpha (P41020 as listed by the source): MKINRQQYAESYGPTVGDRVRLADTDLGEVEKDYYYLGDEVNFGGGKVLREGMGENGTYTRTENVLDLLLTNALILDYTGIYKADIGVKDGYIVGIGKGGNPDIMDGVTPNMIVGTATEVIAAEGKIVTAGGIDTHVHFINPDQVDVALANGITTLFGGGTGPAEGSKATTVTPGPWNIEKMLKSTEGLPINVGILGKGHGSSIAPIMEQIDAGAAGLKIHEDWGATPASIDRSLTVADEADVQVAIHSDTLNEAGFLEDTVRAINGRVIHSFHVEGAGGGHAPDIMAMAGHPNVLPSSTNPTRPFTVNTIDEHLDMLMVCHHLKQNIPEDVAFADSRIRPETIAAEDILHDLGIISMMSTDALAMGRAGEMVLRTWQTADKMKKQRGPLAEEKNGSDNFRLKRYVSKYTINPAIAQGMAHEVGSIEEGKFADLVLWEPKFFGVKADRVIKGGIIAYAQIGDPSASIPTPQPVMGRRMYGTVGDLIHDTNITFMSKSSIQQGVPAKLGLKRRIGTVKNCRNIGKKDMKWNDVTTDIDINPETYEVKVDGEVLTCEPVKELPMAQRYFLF
In the case of `CCCCCCCCCCCC(=O)c1c(O)c2ccccc2oc1=O` [3-Lauroyl-(4-hydroxycoumarin) (6)], the pIC50 (as a rule, the IC50 on a negative log10 scale, so that one unit is a factor of ten) is 4.77.

Take `CCCCCCCCC(=O)c1c(O)c2ccccc2oc1=O` [3-Nonanoyl-(4-hydroxycoumarin) (4)]: the negative logarithm of the IC50 (pIC50) was 4.51. This pIC50 is 0.26 log units lower than that of the compound before.

For `NC(N)=S` [thiocarbamide], the pIC50 was 4.68.

As to `CCCCCCCCCC(=O)c1c(O)c2ccccc2oc1=O` [3-Decanoyl-(4-hydroxycoumarin) (5)], the pIC50 was 4.89.

`COc1cc(C(=O)c2c(O)c3ccccc3oc2=O)cc(OC)c1OC` [3-(3,4,5-Trimethoxybenzoyl)-(4-hydroxycoumarin) (9)] had a negative logarithm of the IC50 (pIC50) of 4.95. The pIC50 values of the last two compounds are within 0.2 log units of each other.

In turn, `CS(=O)(=O)c1c(O)c2ccccc2oc1=O` [3-(Methanesulfonoyl)-(4-hydroxycoumarin) (11)] gave a pIC50 of 4.53.

Take `O=c1oc2ccccc2c(O)c1S(=O)(=O)c1cccc2ccccc12` [3-(1-Naphthosulfonyl)-(4-hydroxycoumarin) (16)]: the pIC50 was 4.16.
